According to ChEMBL document CHEMBL1201862, “PubChem BioAssay data set” (2004):
Calls of active or inactive are those of the source.

Experiments:
[1] = target: T1, Short transient receptor potential channel 4 (Mus musculus, UniProt Q9QUQ5); assay: mouse TRPC4 channel activators, dose response, cell-based, HEK293 TRPC4/mu-opioid, Fluo-4 calcium (AID 434937); type: functional
T1 sequence (Q9QUQ5 whole entry): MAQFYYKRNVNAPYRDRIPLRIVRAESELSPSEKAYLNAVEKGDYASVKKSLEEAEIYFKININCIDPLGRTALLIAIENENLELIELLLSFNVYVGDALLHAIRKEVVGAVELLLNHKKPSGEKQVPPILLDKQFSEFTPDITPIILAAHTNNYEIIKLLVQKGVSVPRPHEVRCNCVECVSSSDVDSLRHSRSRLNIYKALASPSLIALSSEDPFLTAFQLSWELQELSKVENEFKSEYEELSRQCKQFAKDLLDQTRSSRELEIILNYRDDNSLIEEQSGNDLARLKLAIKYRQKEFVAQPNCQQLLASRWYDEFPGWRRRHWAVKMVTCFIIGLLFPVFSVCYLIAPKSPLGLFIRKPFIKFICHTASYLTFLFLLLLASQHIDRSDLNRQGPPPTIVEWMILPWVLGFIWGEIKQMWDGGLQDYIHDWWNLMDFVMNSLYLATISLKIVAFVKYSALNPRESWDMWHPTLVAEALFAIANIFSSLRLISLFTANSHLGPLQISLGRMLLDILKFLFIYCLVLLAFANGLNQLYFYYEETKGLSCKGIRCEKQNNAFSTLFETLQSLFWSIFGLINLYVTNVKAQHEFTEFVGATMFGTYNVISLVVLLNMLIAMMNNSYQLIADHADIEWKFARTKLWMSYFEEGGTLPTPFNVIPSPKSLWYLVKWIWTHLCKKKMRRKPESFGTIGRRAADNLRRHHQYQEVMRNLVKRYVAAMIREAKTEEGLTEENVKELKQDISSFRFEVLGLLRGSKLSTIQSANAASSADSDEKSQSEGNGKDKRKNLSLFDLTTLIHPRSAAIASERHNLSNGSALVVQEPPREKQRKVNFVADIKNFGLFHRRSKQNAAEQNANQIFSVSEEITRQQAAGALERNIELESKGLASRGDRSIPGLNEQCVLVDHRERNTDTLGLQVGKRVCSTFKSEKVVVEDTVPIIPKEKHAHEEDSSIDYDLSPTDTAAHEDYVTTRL

[2] = target: DNA dC->dU-editing enzyme APOBEC-3G (Homo sapiens, UniProt Q9HC16); assay: APOBEC3G deaminase inhibitors, SAR follow-up, biochemical, fluorescence, single-stranded DNA substrate (AID 602136); type: functional; conditions: read-out: IC50_Mean
[3] = target: DNA dC->dU-editing enzyme APOBEC-3A (Homo sapiens, UniProt P31941); assay: SAR analysis of small molecule inhibitors of APOBEC3A DNA Deaminase via a fluorescence-based single-stranded DNA deaminase assay.; type: functional; conditions: read-out: IC50_Mean
[4] = target: Protein disulfide-isomerase (Homo sapiens, UniProt P07237); assay: PDI inhibitors, insulin aggregation turbidity, dose response, biochemical, absorbance, cherry-picked samples (AID 602350); type: functional
[5] = test system: Streptococcus sp. 'group A'; assay: growth inhibition of control SK(-) GAS strain, dose response, counter-screen for streptokinase expression inhibitor project, luminescence, kanamycin, BacTiterGlo, confirmation (AID 1900); type: functional, organism-based
[6] = inhibitors of intracellular T. cruzi replication, confirmation, NIH3T3 host cells, beta-gal luminescence (AID 2044); type: functional, cell-based;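 also: intracellular parasites grown in NIH/3T3 mouse fibroblasts as host cells; luminescent beta-galactosidase reporter signal from transgenic T. cruzi replicating inside host cells; inhibitors lower the luminescence signal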
[7] = cytotoxicity toward NIH3T3 fibroblasts, dose response, counter-screen, cell-based, ATP luminescence, mouse fibroblasts (AID 2010); type: functional;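 also: cells exposed to compound for about 90 hours before reading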
[8] = test system: Streptococcus; assay: Group A Streptococcus viability loss, dose response, counter-screen for streptokinase expression inhibitor project, luminescence, BacTiterGlo (AID 1915); type: functional, organism-based;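 also: potency for reduction of bacterial viability or growth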
[9] = Luminescence Cell-Based Dose Retest to Confirm Inhibitors of Cancer Stem Cells. [Related pubchem assays (depositor defined):AID2717, AID2721]; type: functional; conditions: Homo sapiens
[10] = test system: CHO; assay: cytotoxicity in TLR9-MyD88 CHO cells, dose response, cytotoxicity control for TLR9-MyD88 binding inhibitor project, cell-based, luminescence (AID 588339); type: functional, hamster; conditions: Cricetulus griseus;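 also: CHO cells stably coexpressing TLR9 and MyD88 fusions from primary screen; compound exposure lasted 48 hours before viability readout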
[11] = target: Heat shock protein HSP 90-alpha (Homo sapiens, UniProt P07900); type: functional, organism-based
[12] = target: Beta Lactamase (Pseudomonas aeruginosa, UniProt Q932Y6); assay: beta-lactamase reporter inhibitor potency, dose response, artefact control for TLR9-MyD88 binding inhibitor project, BLA reporter cells, FRET fluorescence (AID 588341); type: cell-based;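 also: cell based assay in CHO-K1 cells stably expressing beta-lactamase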
[13] = target: T2, High affinity choline transporter 1 (Homo sapiens, UniProt Q9GZV3); assay: CHT inhibitors, dose response, cell-based, 5-point CRC, membrane potential dye (AID 504840); type: functional
T2 sequence (Q9GZV3 whole entry): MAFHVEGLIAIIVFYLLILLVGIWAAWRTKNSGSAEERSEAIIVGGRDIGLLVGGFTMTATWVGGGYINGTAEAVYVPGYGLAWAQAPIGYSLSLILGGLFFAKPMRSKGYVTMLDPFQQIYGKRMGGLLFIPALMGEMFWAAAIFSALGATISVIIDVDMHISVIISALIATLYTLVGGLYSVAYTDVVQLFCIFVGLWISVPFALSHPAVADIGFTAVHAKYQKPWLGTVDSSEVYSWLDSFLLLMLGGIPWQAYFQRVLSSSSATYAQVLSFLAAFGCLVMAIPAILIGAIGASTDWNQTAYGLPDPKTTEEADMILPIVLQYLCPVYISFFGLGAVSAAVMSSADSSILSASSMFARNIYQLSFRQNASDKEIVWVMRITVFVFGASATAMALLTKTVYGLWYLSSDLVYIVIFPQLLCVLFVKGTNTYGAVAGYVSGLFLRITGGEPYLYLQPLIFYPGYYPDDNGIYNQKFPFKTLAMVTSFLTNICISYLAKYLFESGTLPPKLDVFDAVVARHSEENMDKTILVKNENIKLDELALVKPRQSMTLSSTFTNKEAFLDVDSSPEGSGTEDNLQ

[14] = target: T2, High affinity choline transporter 1; assay: CHT inhibitors, dose response, cell-based, 10-point CRC, membrane potential dye (AID 588401); type: functional;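 also: membrane potential dye fluorescence of choline-evoked depolarization via CHT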
[15] = target: T3, Galanin receptor type 3 (Homo sapiens, UniProt O60755); assay: Fluorescence-based cell-based primary high throughput dose response assay to identify antagonists of the Galanin Receptor 3 (GalR3).; type: functional
T3 sequence (O60755 whole entry): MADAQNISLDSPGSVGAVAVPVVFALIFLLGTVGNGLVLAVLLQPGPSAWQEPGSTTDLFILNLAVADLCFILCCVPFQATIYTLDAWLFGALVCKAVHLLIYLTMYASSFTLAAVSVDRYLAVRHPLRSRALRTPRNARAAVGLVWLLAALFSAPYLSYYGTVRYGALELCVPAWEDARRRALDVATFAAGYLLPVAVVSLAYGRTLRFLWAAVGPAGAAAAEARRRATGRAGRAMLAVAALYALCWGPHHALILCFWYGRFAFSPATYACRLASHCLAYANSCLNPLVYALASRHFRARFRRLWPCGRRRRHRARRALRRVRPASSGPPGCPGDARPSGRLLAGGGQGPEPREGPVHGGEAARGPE

[16] = cells; type: functional, cell-based; conditions: HEK-CNG
[17] = target: Ras and Rab interactor 1/Tyrosine-protein kinase ABL1 (Homo sapiens, UniProt P00519+Q13671); type: functional;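 also: biochemical TR-FRET dose-response test measuring inhibition of binding between Rin1 and Abl proteins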
[18] = target: T4, Neuropeptides B/W receptor type 1 (Homo sapiens, UniProt P48145); assay: GPR7 antagonist potency, late-stage follow-up, cell-based, fluorescence, dose response, set 5 (AID 588566); type: functional
T4 sequence (P48145 whole entry): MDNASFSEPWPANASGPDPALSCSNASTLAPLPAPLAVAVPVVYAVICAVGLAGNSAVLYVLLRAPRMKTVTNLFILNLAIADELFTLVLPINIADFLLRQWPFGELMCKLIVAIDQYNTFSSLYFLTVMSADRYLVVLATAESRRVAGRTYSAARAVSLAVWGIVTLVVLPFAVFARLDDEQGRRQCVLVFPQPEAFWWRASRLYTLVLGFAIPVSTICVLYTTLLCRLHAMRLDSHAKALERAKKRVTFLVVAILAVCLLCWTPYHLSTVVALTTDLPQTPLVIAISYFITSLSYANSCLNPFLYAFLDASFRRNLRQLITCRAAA

[19] = target: Melanin-concentrating hormone receptor 1 (Homo sapiens, UniProt Q99705); assay: Late-stage fluorescence-based counterscreen for antagonists of the G-protein coupled receptor 7 (GPR7): cell-based dose response assay to identify antagonists of the melanin-concentrating hormone receptor 1 (MCHR1) Set 5.; type: functional
[20] = target: T5, Apoptotic protease-activating factor 1 (Homo sapiens, UniProt O14727); assay: SAR analysis of small molecule Activators of Apaf-1 in a Fluorescent assay.; type: functional; conditions: read-out: EC50_Mean;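 also: caspase-3 cleavage of fluorogenic Rh110 DEVD substrate downstream of apoptosome activation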
T5 sequence (O14727 whole entry): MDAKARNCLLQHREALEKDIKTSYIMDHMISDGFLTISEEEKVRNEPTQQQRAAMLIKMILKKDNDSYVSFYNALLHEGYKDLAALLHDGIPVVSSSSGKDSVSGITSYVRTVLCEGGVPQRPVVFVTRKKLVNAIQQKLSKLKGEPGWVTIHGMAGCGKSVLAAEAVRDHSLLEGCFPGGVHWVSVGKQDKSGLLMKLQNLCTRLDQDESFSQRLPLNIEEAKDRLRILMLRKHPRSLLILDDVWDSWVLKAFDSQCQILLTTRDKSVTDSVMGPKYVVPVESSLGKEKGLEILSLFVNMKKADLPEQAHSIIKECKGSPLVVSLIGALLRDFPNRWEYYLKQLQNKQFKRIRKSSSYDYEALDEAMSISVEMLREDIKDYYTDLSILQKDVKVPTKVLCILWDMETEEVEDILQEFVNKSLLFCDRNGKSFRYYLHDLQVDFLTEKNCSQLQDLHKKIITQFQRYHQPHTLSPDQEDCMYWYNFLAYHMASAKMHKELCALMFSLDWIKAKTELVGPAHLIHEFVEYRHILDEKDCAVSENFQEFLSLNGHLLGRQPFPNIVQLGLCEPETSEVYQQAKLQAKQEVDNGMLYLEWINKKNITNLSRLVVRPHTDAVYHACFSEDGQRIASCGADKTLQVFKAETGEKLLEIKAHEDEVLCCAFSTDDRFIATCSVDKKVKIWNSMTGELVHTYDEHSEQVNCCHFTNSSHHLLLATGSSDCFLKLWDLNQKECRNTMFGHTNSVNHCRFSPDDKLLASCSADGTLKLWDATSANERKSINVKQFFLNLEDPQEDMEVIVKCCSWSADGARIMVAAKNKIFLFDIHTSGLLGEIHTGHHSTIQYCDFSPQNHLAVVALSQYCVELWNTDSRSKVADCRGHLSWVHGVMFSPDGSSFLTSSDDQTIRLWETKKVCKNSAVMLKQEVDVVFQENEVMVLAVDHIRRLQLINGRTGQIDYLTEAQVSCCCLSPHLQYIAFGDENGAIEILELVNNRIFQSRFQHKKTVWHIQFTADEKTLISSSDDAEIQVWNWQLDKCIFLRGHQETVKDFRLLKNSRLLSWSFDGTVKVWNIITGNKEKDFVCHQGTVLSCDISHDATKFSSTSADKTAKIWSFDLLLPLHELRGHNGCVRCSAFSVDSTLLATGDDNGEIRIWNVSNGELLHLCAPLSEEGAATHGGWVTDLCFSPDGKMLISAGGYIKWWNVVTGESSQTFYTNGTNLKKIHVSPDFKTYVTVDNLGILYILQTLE

DNA dC->dU-editing enzyme APOBEC-3G, sequence (Q9HC16 whole entry): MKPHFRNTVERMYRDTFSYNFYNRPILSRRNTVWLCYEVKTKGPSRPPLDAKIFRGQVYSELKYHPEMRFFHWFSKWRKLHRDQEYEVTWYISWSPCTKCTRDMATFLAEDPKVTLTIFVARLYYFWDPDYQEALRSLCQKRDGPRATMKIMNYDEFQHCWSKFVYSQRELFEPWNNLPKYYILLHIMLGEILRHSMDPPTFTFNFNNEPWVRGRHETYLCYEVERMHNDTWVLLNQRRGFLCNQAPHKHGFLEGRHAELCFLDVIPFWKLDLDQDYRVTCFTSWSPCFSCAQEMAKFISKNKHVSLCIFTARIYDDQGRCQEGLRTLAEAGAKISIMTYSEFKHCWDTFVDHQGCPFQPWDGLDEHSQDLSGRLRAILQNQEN
Melanin-concentrating hormone receptor 1, sequence (Q99705 whole entry): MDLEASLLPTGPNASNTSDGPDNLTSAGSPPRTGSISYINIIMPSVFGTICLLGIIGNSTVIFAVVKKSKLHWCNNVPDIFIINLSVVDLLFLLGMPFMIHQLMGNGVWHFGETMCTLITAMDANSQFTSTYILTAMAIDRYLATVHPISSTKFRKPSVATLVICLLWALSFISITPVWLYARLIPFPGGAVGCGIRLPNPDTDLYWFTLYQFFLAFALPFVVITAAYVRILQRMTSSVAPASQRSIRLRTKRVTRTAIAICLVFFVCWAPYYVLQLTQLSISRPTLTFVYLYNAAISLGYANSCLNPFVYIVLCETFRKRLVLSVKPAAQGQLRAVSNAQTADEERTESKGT
DNA dC->dU-editing enzyme APOBEC-3A, sequence (P31941 whole entry): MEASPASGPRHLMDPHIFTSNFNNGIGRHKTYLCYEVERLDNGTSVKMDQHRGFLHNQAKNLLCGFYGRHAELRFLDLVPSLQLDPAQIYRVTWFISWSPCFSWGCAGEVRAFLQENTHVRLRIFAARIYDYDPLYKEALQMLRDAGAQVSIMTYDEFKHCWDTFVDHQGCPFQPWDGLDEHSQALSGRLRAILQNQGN
Beta Lactamase, sequence (Q932Y6 whole entry): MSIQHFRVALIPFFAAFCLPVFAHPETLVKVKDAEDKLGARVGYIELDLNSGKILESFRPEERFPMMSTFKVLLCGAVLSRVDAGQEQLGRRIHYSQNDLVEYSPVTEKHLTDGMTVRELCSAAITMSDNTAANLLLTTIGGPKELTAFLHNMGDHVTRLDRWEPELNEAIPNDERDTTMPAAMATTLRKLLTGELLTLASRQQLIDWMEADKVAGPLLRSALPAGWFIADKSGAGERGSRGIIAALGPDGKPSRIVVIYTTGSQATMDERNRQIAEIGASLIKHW
Ras and Rab interactor 1/Tyrosine-protein kinase ABL1, sequence (P00519 whole entry): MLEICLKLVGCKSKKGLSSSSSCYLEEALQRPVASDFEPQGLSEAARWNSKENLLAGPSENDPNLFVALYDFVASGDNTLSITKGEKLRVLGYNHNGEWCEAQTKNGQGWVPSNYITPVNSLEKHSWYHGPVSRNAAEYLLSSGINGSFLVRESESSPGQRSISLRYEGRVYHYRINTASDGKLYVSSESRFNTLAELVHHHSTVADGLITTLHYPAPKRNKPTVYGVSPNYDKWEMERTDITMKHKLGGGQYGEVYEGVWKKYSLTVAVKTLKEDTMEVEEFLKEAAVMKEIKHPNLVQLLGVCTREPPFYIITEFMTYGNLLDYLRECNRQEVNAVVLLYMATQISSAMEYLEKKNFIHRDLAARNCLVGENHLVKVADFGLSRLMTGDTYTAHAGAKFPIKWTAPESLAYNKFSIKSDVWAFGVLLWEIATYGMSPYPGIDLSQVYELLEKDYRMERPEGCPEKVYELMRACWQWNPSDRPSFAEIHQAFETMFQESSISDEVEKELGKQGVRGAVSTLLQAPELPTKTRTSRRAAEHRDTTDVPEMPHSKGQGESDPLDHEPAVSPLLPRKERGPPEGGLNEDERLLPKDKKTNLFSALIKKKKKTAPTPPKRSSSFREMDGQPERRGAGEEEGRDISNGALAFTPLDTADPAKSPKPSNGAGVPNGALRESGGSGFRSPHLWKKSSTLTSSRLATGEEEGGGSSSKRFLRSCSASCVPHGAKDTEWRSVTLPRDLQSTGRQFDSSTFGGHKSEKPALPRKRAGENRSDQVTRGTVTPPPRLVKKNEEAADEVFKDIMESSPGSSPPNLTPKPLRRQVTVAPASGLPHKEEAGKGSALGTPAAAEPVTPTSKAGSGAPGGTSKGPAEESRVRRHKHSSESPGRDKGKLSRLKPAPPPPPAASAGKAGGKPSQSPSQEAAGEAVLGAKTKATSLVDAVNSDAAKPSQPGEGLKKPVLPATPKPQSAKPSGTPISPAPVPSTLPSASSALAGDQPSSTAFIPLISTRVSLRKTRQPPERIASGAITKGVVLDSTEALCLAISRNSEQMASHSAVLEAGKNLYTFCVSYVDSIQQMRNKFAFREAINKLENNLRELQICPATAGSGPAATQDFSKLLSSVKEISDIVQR
Ras and Rab interactor 1/Tyrosine-protein kinase ABL1, sequence (Q13671 whole entry): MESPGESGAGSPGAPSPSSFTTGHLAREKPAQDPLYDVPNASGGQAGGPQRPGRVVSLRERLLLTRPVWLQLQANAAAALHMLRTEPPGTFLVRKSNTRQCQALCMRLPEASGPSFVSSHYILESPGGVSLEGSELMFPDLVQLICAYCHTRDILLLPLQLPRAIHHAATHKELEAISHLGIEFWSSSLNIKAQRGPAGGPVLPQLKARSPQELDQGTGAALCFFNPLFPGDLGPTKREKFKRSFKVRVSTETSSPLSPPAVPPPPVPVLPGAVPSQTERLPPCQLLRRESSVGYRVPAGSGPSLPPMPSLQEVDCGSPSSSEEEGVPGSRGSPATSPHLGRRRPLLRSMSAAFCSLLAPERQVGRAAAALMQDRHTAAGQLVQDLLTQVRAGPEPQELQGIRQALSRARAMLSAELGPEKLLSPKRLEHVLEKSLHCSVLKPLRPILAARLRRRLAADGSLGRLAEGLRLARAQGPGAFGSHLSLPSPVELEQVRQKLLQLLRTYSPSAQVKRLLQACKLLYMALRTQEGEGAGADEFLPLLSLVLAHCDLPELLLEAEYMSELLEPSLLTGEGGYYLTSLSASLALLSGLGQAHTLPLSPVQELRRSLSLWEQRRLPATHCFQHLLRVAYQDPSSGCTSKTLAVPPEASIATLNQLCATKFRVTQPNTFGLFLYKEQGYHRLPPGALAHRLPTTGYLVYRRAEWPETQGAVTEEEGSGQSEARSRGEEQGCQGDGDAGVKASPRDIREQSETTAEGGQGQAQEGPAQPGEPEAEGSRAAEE
Protein disulfide-isomerase, sequence (P07237 whole entry): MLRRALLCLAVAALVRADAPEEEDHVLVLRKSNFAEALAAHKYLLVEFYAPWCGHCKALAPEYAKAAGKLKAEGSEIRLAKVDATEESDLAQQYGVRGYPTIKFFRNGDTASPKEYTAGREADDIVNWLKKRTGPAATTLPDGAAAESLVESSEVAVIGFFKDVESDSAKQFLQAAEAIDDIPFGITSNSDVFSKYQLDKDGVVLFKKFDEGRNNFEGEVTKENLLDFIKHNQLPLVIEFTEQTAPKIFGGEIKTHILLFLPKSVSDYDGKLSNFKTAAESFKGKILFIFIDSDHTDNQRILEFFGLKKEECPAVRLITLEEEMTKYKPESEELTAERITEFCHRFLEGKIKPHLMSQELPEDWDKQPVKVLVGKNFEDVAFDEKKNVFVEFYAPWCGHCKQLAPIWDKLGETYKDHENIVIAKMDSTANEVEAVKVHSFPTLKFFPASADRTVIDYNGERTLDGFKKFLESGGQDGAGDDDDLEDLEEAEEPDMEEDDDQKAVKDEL

## COc1ccc2c(Cl)c(-c3nnc4n3CCCCC4)sc2c1
[1]
  EC50: 1.88 µM (active)
[2]
  IC50: > 99 µM (inactive)
[3]
  IC50: > 99 µM (inactive)

## Cc1cccn2c(CN(C)C3CCCc4ccccc43)c(C(=O)N3CCOCC3)nc12 (stereo unspecified)
[4]
  AC50: 19.5 µM (active)

## O=[N+]([O-])c1ccc(N2N=C(c3ccccc3)CC2c2ccccc2O)cc1 (stereo unspecified)
[5]
  EC50: 2.31 µM (active)
[6]
  EC50: 1.45 µM (active)
[7]
  EC50: > 60 µM (not active)
[8]
  EC50: 3.46 µM (active)
[9]
  AC50: 2.65 µM (active)
[10]
  IC50: 28.5 µM (inactive)
[11]
  AC50: 3.31 µM (active)
[12]
  IC50: 4.58 µM (active)

## COc1ccc(C2=NN(c3nc(C(=O)O)cs3)C(O)(C(F)(F)F)C2)c(OC)c1 (stereo unspecified)
[13]
  IC50: 7.18 µM (active)
[14]
  IC50: 4.74 µM (active)
[15]
  IC50: 10 µM (inactive)
[16]
  EC50: > 29.9 µM (inactive)

## CC(OC(=O)c1ccccc1NCCO)C(=O)Nc1ccnn1C(C)C (stereo unspecified)
[17]
  IC50: 3.98 µM (active)

## Cc1cc(C)c(NC(=O)c2ccc[n+](Cc3ccc([N+](=O)[O-])cc3)c2)c(C)c1
[13]
  IC50: 3.67 µM (active)
[14]
  IC50: 1.5 µM (active)

## Cc1nc(Cc2nnc(SCC(=O)c3cc(C)n(Cc4ccccc4)c3C)o2)cs1
[2]
  IC50: > 99 µM (inactive)
[3]
  IC50: > 99 µM (inactive)

## COc1cccc(Oc2c(Cl)cnn(C3c4ccccc4-c4ccccc43)c2=O)c1
[18]
  IC50: 9.69 µM (active)
[19]
  IC50: > 20 µM (inactive)

## O=C(O)CC(CCc1ccccc1)NC(=O)c1ccco1 (stereo unspecified)
[20]
  EC50: > 100 µM (inactive)

## O=C(C1CCCCN1Cc1c2ccccc2cc2ccccc12)N1CCN(c2ccc([N+](=O)[O-])cc2)CC1 (stereo unspecified)
[18]
  IC50: > 20 µM (inactive)
[19]
  IC50: > 20 µM (inactive)
